From US7786064B1, “Ionic liquids derived from functionalized anionic surfactants” (The Procter & Gamble Company, priority 2004, dated 2010)

Test: Water Miscibility Test
Assay type: physicochemical
Conditions: 0.5 g ionic liquid and 4.5 g de-ionized water, sonicated 1.5 hours; miscible if homogenous transparent system within 15 minutes of standing
Procedure: “Hydrophilic ionic compound” or “water miscible ionic compound” as used herein refers to ionic compound that is partially or wholly miscible with water, i.e. it is capable of forming a visually homogenous or transparent mixture with water according to the Water Miscibility Test described herein. The water miscibility of an ionic liquid is measured by the following water miscibility test. A mixture of 0.5 g ionic liquid and 4.5 g de-ionized water are sonicated in a Bransonic Ultrasonic Bath (model # 1210R-MTH, 50/60 Hz, 117 volts, 1.3 AMPS) according to manufacture's specifications for 1.5 hours. Thereafter, if a homogenous transparent system results within 15 minutes of standing without agitation, then the ionic liquid is water miscible.

| Substance | Water Miscible? |
| --- | --- |
| Tetraoctyl Ammonium Dodecylbenzenesulfonate [Example 3] | No |
| Triisooctylmethyl Ammonium Mid-Chain Branched Dodecylsulfate [Example 2] | No |
| Tetraoctyl Ammonium Mid-Chain Branched Dodecylsulfate [Example 1] | No |
